# Experimental data as given in US9127079B2, “Inhibitors of phosphatase and tensin homolog (PTEN) conjugates” (THE UNIVERSITY OF BRITISH COLUMBIA, priority 2009, dated 2015).
# Assays:
# Assay type in all cases: cell-based, rat
# PTEN [1] = assay: Immunostaining of endogenous PTEN: nuclear translocation in cultured neurons with NMDA; conditions: peptide 10 uM, NMDA stimulation
# Method: (§1) Dissociated cultures of rat cortical or hippocampal neurons were prepared from 18-d-old Sprague Dawley rat embryos as described previously (Mielke and Wang 2005). To obtain mixed cultures enriched with neurons, uridine (10 μM) and 5-Fluor-T-deoxyuridine (10 μM) were added to the culture medium at 3 d in vitro (DIV) and maintained for 48 h to inhibit non-neuronal cell proliferation before the cultures were returned to the normal culture medium. Mature neurons (12-14 DIV) were used for experiments.
# (§2) In order to induce excitotoxicity, 12-14 DIV cultured neurons were washed and transferred to Mg2+-free extracellular solution (ECS) containing the following (in mM): 25 HEPES acid, 140 NaCl, 33 glucose, 5.4 KCl, and 1.3 CaCl2, with pH 7.35 and osmolarity 320-330 mOsm. ECS and subjected to NMDA-induced excitotoxicity (20 μM NMDA, 10 μM glycine, 60 min at room temperature) or any other experimental conditions as indicated in the texts. Cells were then washed twice with normal ECS, and returned to the original growth conditions until additional assay.
# PTEN [2] = assay: Western blotting of nuclear fractions from cultured neurons: PTEN nuclear translocation; conditions: NMDA stimulation
# Method: as §1
# In order to induce excitotoxicity, 12-14 DIV cultured neurons were washed and transferred to Mg2+-free extracellular solution (ECS) containing the following (in mM): 25 HEPES acid, 140 NaCl, 33 glucose, 5.4 KCl, and 1.3 CaCl2, with pH 7.35 and osmolarity 320-330 mOsm. […]
# For western blotting, 10 μg of the nuclear extract or 40 μg of total cell lysate (solubilized by 1% SDS, 1 mM EGTA, 1 mM EDTA, 1 mM DTT, 2 mM sodium orthovanadate, and protease inhibitors cocktail in PBS) from each treatment condition was separated with SDS-PAGE, transferred onto a polyvinylidene difluoride (PVDF) membrane, and probed with the relevant antibodies. […] Band intensities were quantified using NIH ImageJ™ software and normalized to the quantity of a nuclear marker or β-tubulin in each sample lane.
# [3] = tested on: cultured hippocampal neurons; assay: Neuronal death by nuclei staining (Hoechst 33342), NMDA excitotoxicity; conditions: NMDA 20 uM, 1 hour
# Method: as §1, with “experiments. […]” for “experiments.”
# (§3) Necrotic neuronal death was quantified by measuring lactate dehydrogenase (LDH) release 20 h after treatments using a Cyto Tox™ 96 assay kit (Promega™, Madison, Wis.). Absorbance readings were measured using a spectrophotometric microplate reader. Apoptotic neuronal death was determined by visualizing the nucleus condensation and fragmentation of neurons stained with Hoechst-33342™. Images were taken with a Leica DMIRE2™ fluorescence microscope. […] These observations were quantified by double-blind counting of apoptotic and total neurons in each visual field and expressed as percentage apoptosis. […] Data are expressed as the difference in apoptosis relative to control and are expressed as a percentage.
# [4] = tested on: cultured hippocampal neurons; assay: Neuronal death by LDH assay, NMDA excitotoxicity; conditions: NMDA 20 uM, 1 hour
# Method: as §1, with “experiments. […]” for “experiments.”
# as §3
# nuclear PIP3 = assay: Level of nuclear PIP3 after NMDA treatment
# Method: as §1, §2
# Nuclear extracts were isolated from control and NMDA-treated cell cultures (10^8 cells) using the Panomics™ nuclear extraction kit (Panomics™; catalog number AY2002) as recommended by the manufacturer.
Molecule,PTEN nuclear translocation (endogenous PTEN immunostaining) (PTEN [1]),PTEN nuclear translocation (western blotting of nuclear fractions) (PTEN [2]),"cell death, nuclei staining [3]","cell death, LDH assay [4]",level of nuclear PIP3 (nuclear PIP3)
"YGRKKRRQRRR-PEETSEKVENGS (YGRKKRRQRRRPEETSEKVENGS; PTEN K289 interference peptide conjugated to TAT protein transduction domain) [Peptide-K289, TAT protein transduction domain fused to PTEN K289 interference peptide; control for Peptide-K13]",failed to do so,failed to do so,,,
"CN[C@H](CC(=O)O)C(=O)O [NMDA, N-methyl-D-asparate]",,,significant cell death,significant cell death,reduced the level of nuclear PIP3
